Test results as given in ChEMBL document CHEMBL1201862, “PubChem BioAssay data set” (2004).
Active and inactive are the calls of the source.

Key:
[1] = test system: HEK293; assay: EBV LMP1 TES2 canonical NF-kB signalling blockers – cell-based, HEK293, luciferase, cherry-pick, dose response (AID 588343); type: functional; conditions: Homo sapiens
[2] = test system: Vero; assay: cells; type: functional; conditions: Chlorocebus sabaeus
[3] = viability of HCT116 lacking mutant beta-catenin – cell-based, human colon tumor, dose response (AID 1045); type: functional;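 note: HCT116 colon tumor cells with beta catenin knocked out; cells exposed to compound for 60 hours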
[4] = viability of PTEN-deleted HCT116 cells – cell-based, HCT116 PTEN knockout, dose response (AID 1047); type: functional;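 note: HCT116 colon tumor cells with PTEN knocked out; cells exposed to compound for 60 hours before readout; potency for loss of cell viability measured by luminescence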
[5] = viability of uninfected HEp-2 cells – cell-based, HTS, cytotoxicity control for RSV inhibitor project, dose response (AID 2410); type: functional; conditions: human respiratory syncytial virus
[6] = target: T1, Adenosylmethionine-8-amino-7-oxononanoate aminotransferase (Mycobacterium tuberculosis, UniProt P9WQ81); assay: Mycobacterium tuberculosis BioA enzyme inhibitor Measured in Biochemical System Using Plate Reader - 2163-02_Inhibitor_Dose_CherryPick_Activity.; type: functional, Mycobacterium tuberculosis UT205
T1 sequence (P9WQ81 whole entry): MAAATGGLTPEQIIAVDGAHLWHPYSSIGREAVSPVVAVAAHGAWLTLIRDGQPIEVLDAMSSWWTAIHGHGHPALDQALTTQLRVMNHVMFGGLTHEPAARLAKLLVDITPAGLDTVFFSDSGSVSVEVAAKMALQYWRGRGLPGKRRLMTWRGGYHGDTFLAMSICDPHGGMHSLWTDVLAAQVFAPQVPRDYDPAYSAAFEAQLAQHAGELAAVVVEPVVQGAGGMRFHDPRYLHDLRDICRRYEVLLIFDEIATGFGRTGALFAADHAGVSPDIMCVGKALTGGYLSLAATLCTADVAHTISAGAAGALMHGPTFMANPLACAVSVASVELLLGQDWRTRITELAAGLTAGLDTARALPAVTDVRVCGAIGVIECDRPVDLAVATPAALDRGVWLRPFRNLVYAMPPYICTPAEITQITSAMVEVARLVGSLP

[7] = test system: HEK293; assay: inhibition of NOD1-driven NF-kB reporter – cell-based, luminescence, uHTS, primary screen (AID 1578); type: functional; conditions: Homo sapiens
[8] = target: Nucleotide-binding oligomerization domain-containing protein 2 (Homo sapiens, UniProt Q9HC29); assay: inhibition of NOD2-driven NF-kB reporter – cell-based, luminescence, uHTS, HEK293 (AID 1566); type: functional
Chain of Nucleotide-binding oligomerization domain-containing protein 2 (Q9HC29 whole entry, the tested form may be a part): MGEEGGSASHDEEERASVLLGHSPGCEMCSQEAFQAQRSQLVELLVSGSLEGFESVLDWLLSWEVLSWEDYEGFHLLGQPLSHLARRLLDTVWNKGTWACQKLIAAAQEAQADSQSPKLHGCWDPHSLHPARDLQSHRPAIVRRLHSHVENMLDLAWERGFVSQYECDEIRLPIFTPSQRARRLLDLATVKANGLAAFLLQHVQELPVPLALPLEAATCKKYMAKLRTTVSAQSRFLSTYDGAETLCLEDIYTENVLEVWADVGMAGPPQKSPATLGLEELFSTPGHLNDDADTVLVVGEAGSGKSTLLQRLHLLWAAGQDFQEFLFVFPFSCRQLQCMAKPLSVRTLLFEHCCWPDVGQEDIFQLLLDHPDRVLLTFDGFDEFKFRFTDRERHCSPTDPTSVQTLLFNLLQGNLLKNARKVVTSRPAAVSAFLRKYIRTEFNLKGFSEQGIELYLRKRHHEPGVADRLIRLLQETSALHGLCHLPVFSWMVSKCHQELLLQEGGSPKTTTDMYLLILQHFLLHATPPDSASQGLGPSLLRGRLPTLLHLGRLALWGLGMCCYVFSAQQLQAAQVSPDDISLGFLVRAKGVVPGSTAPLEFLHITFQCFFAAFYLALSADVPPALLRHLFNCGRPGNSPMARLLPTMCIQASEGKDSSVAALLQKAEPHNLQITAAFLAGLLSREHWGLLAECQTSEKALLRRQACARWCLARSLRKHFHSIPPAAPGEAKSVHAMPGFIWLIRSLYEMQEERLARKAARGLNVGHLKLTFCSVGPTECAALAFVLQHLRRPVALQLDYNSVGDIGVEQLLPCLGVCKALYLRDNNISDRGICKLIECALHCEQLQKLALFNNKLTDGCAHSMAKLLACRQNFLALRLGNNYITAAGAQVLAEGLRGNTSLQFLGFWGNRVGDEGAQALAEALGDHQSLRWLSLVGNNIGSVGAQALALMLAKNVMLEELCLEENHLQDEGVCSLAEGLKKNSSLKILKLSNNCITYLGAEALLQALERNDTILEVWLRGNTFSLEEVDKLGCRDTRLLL

[9] = test system: HEK293; assay: cells; type: functional, cell-based; conditions: Homo sapiens
[10] = test system: HEK293; assay: NOD2 signaling inhibitors in MDP-stimulated cells, cell-based, uHTS, luminescence (AID 2001); type: functional; conditions: Homo sapiens
[11] = test system: HEK293; assay: cells; type: functional, cell-based; conditions: Homo sapiens; remark: listed apart in the source
[12] = test system: HEK293; assay: cells; type: functional, cell-based; conditions: Homo sapiens; remark: listed apart in the source
[13] = target: DNA dC->dU-editing enzyme APOBEC-3G (Homo sapiens, UniProt Q9HC16); type: functional;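 note: Dose-response counterscreen measuring inhibition of APOBEC3G DNA deaminase activity, run while confirming APOBEC3A inhibitors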
Chain of DNA dC->dU-editing enzyme APOBEC-3G (Q9HC16 whole entry): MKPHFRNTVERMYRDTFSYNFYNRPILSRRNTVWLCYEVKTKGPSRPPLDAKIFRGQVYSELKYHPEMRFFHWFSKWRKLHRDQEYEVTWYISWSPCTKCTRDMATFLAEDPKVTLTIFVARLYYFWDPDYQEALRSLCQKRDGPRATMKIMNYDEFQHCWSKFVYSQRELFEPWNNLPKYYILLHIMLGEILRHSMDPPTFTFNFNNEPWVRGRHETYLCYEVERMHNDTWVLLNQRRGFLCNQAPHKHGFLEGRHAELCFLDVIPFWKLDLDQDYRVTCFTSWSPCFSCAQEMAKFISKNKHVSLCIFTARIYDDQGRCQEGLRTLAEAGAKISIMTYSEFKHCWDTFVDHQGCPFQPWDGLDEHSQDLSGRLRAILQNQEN

[14] = target: DNA dC->dU-editing enzyme APOBEC-3A (Homo sapiens, UniProt P31941); assay: Dose Response confirmation of small molecule APOBEC3A DNA Deaminase Inhibitors via a fluorescence-based single-stranded DNA deaminase assay. [Related pubchem assays (depositor defined):AID493011, AID493024]; type: functional
Chain of DNA dC->dU-editing enzyme APOBEC-3A (P31941 whole entry, the tested form may be a part): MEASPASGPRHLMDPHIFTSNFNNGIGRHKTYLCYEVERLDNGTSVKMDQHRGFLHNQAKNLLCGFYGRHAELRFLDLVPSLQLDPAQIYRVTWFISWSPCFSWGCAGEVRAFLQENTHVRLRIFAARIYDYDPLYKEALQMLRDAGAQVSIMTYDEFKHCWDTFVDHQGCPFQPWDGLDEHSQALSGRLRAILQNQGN

[15] = target: T2, Carboxy-terminal domain RNA polymerase II polypeptide A small phosphatase 1 (Homo sapiens, UniProt Q9GZU7); assay: CTDSP1 inhibitors, concentration-response, biochemical, absorbance readout, ultra-high-throughput screen actives (AID 540297); type: functional
T2 sequence (Q9GZU7 whole entry): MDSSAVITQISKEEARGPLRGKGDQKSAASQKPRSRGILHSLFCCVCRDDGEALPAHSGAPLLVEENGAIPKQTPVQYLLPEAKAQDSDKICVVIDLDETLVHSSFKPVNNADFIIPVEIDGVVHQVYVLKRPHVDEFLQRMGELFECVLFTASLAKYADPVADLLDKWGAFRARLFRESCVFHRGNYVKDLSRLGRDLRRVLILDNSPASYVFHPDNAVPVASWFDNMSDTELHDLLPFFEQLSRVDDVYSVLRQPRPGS

[16] = test system: P388; assay: cells; type: functional; conditions: Mus musculus
[17] = test system: P388/ADR; assay: cells; type: functional; conditions: Mus musculus
[18] = test system: SN12K1; assay: cells; type: functional; conditions: Homo sapiens
[19] = Luminescence Cell-Based Dose Confirmation HTS to Identify Activators of 5'UTR Stem-Loop Driven Alpha-Synuclein mRNA Translation in H4 Neuroglioblastoma Cells. [Related pubchem assays: 1829 (Project Summary), 1814 (Primary HTS)]; type: functional
[20] = target: Cytochrome P450 2C9 (Homo sapiens, UniProt P11712)
Chain of Cytochrome P450 2C9 (P11712 whole entry): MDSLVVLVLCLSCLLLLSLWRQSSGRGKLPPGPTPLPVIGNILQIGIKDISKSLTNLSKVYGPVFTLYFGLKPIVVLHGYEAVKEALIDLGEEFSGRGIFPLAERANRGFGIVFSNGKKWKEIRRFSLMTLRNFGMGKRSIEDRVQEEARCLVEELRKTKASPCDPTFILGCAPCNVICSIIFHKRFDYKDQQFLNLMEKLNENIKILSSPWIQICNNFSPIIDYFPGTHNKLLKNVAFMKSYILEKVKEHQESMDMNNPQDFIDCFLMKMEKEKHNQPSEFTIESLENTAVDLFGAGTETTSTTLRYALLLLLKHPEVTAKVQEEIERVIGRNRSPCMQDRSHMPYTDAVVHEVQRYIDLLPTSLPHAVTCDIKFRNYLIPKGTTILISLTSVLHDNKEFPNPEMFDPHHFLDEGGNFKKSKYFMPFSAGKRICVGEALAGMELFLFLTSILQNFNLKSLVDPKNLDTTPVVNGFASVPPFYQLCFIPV

[21] = test system: H4; assay: Luminescence Cell-Based Dose Response HTS to Identify Activators of 5'UTR Stem-Loop Driven Prion Protein mRNA Translation in H4 Neuroglioblastoma Cells. [Related pubchem assays: 1829 (Project Summary), 1814 (Primary HTS)]; type: functional; conditions: Homo sapiens
[22] = Luminescence Cell-Based Dose Response HTS to Identify Activators of Luciferase Translation or Activity in H4 […] Cells. [Related pubchem assays: 1829 (Project Summary), 1814 (Primary HTS)]; type: functional
[23] = Trypanosoma cruzi growth suppression in host cells – NIH3T3 host cells, beta-gal luminescence, confirmation (AID 2044); type: functional, cell-based;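 note: intracellular parasites grown in NIH/3T3 mouse fibroblasts as host cells; luminescent beta-galactosidase reporter signal from transgenic T. cruzi replicating inside host cells; inhibitors lower the luminescence signal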
[24] = NIH3T3 cell viability loss – ATP luminescence, mouse fibroblasts, counter-screen, dose response (AID 2010); type: functional, cell-based;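 note: cells exposed to compound for about 90 hours before reading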

With `CCn1c2ccccc2c2cc(/C=C(/C#N)C(N)=S)ccc21` the AC50 [1] was 1.21 µM (active).

In the case of `O=[N+]([O-])CC(c1ccc(Br)cc1)c1c(O)n[nH]c1-c1ccccc1O` (stereo not given), the CC50 [2] is reported as 14.2 µM (active), the EC50 [3] is reported as 6.72 µM (active) and the EC50 [4] is reported as 9 µM (active). For the same compound, the CC50 [5] was 10.3 µM (active).

With `CSc1ccc(S(=O)(=O)N2CCC(C(=O)Nc3cccnc3)CC2)cc1` the AC50 [6] was 0.807 µM (active).

For `Cc1ccc(Nc2c([N+](=O)[O-])nn(-c3ccc4c(c3)OCCO4)[n+]2[O-])cc1F`, the AC50 [1] was 0.538 µM (active), the EC50 [7] was > 20 µM (inactive) and the EC50 [8] was > 20 µM (inactive). For the same compound, the IC50 [9] was 0.842 µM (active), the IC50 [10] was > 20 µM (inactive) and the IC50 [11] was > 20 µM (inactive). For the same compound, the IC50 [12] was > 20 µM (inactive).

In the case of `N#C/C(=C/c1ccc(OCc2ccc(C(=O)O)cc2)cc1)C(=O)Nc1ccccc1`, the IC50 [13] is reported as 2.36 µM (active), the IC50 [14] is reported as 1.75 µM (active) and the IC50 [15] is reported as 5.32 µM (active).

With `CCOC(=O)C1CCN(S(=O)(=O)c2ccc3c(c2)N(C(C)=O)CC(C)S3)CC1` (stereo not given) the EC50 [7] was 7.03 µM (active), the EC50 [8] was > 20 µM (inactive) and the IC50 [9] was 19.7 µM (active). The IC50 [10] was > 20 µM (inactive), the IC50 [11] was > 20 µM (inactive) and the IC50 [12] was > 20 µM (inactive).

In the case of `Nc1ccn(C2OC(CO)C(O)C2O)c(=O)n1` (stereo not given), the GI50 [16] is reported as 0.05 µM (active), the GI50 [17] is reported as 0.05 µM (active) and the GI50 [18] is reported as 0.07 µM (active).

In the case of `CC(=O)OCc1cc(=O)n(C)c2c3c4c(cc12)c(C)cc(=O)n4CO3`, the GI50 [16] is reported as 0.344 µM (active), the GI50 [17] is reported as 0.531 µM (active) and the GI50 [18] is reported as 0.843 µM (active).

In the case of `Cc1cc(C)n(C2CCCCC2OC(=O)c2ccccc2F)n1` (stereo not given), the AC50 [1] is reported as > 350 µM (inactive).

For `CCCCC1(C2c3ccccc3Oc3ccccc32)C(=O)N(c2ccccc2)N(c2ccccc2)C1=O`, the GI50 [16] was 9.82 µM (inactive), the GI50 [17] was 17.6 µM (inactive) and the GI50 [18] was 34.8 µM (inactive).

For `C#CCSc1nnc(-c2sc(-c3ccccc3)nc2C)n1C`, the EC50 [19] was > 120 µM (not active), the AC50 [20] was 17.8 µM (inconclusive) and the EC50 [21] was 16.9 µM (active). The EC50 [22] was 48.9 µM (active) and the AC50 [6] was 2.88 µM (active).

In the case of `NCCCNCCSP(=O)(O)O` [AMIFOSTINE], the GI50 [16] is reported as 54.6 µM (inactive), the GI50 [17] is reported as 84.3 µM (inactive) and the GI50 [18] is reported as > 667 µM (inactive).

With `Cc1nc2nc(SCC(=O)NCc3ccco3)nn2c(C)c1Cc1ccccc1` the AC50 [6] was 0.704 µM (active).

With `CC(=O)c1cccc(NS(=O)(=O)c2ccc(NC(=O)N3CCCCC3)cc2)c1` the EC50 [7] was 3.33 µM (active), the EC50 [8] was 15.6 µM (active) and the IC50 [9] was 14.3 µM (active). The IC50 [10] was 11.3 µM (inactive), the IC50 [11] was > 20 µM (inactive) and the IC50 [12] was > 20 µM (inactive).

For `CN1c2ccc(-c3cccc(F)c3)cc2[C@H]2[C@H](CCN2C(=O)C2CCOCC2)[C@H]1CO`, the AC50 [6] was 0.108 µM (active).

For `Cn1c(/C=C/CO)c(CO)c2c1C(=O)C=C(N1CC1)C2=O` [APAZIQUONE], the GI50 [16] was 0.94 µM (active), the GI50 [17] was 0.506 µM (active) and the GI50 [18] was 0.0102 µM (active).

With `Cc1cccc(N2CCN(C(=O)CCCCCn3c(=S)[nH]c4ccc(N5CCOCC5)cc4c3=O)CC2)c1C` the EC50 [7] was 15.1 µM (active), the EC50 [23] was 1.56 µM (active) and the EC50 [24] was > 60 µM (not active). For the same compound, the EC50 [8] was 11.9 µM (active), the IC50 [9] was > 20 µM (inactive) and the IC50 [10] was 11.9 µM (inactive). The IC50 [11] was > 20 µM (inactive), the CC50 [5] was 26.4 µM (active) and the IC50 [12] was > 20 µM (inactive).
